Read-outs that look alike come from different tables or passages of the source.
Assay: Solubility of selected FT4 and FT5 compounds in organic solvents (10 mg compound, stepwise 5 mL solvent additions, ultrasonic bath)
Assay type: physicochemical
Conditions: thermodynamic from solid
Protocol: Solubility of Selected FT4 And FT5 Compounds Table 1 provides a solubility comparison of some α-, α′-unsubstituted, β-, β′-alkyl substituted FT4 (and FT5), with some α-, α′-substituted, β-, β′-alkyl substituted FT4 (and FT5) compounds. General Procedure: 10 mg of a FT4 or FT5 compound was mixed with 5.0 mL of a specified solvent and then sealed in a screw-top glass vial. The resulting mixture was kept in an ultrasonic bath for 30 minutes at ambient temperature and then kept quiescent for 30 minutes to check whether a clear solution formed. If the mixture was still not clear after these 60 minutes, an additional 5.0 mL of the same solvent was added to the vial and the 60 minute mixing and standing procedure was repeated up to a total of 20 mL of solvent.

[1] = CH2Cl2, organic solvent or mixture, 10 mg compound in 5 mL CH2Cl2, ambient temperature, read-out: Solubility CH2Cl2
[2] = CH2Cl2, organic solvent or mixture, 10 mg compound in 10 mL CH2Cl2, ambient temperature, read-out: Solubility CH2Cl2
[3] = hexane, organic solvent or mixture, 10 mg compound in 5 mL hexane, ambient temperature, read-out: Solubility hexane
[4] = hexane, organic solvent or mixture, 10 mg compound in 10 mL hexane, ambient temperature, read-out: Solubility hexane
[5] = hexane, organic solvent or mixture, 10 mg compound in 15 mL hexane, ambient temperature, read-out: Solubility hexane
[6] = hexane, organic solvent or mixture, 10 mg compound in 20 mL hexane, ambient temperature, read-out: Solubility hexane
[7] = toluene, organic solvent or mixture, 10 mg compound in 5 mL toluene, ambient temperature, read-out: Solubility toluene
[8] = toluene, organic solvent or mixture, 10 mg compound in 10 mL toluene, ambient temperature, read-out: Solubility toluene
[9] = CH2Cl2, organic solvent or mixture, 10 mg compound in 15 mL CH2Cl2, ambient temperature, read-out: Solubility CH2Cl2
[10] = CH2Cl2, organic solvent or mixture, 10 mg compound in 20 mL CH2Cl2, ambient temperature, read-out: Solubility CH2Cl2
[11] = toluene, organic solvent or mixture, 10 mg compound in 15 mL toluene, ambient temperature, read-out: Solubility toluene
[12] = toluene, organic solvent or mixture, 10 mg compound in 20 mL toluene, ambient temperature, read-out: Solubility toluene

solubility at 60 min [1] [µg/mL] | solubility at 60 min [2] [µg/mL] | solubility at 60 min [3] [µg/mL] | solubility at 60 min [4] [µg/mL] | solubility at 60 min [5] [µg/mL] | solubility at 60 min [6] [µg/mL] | solubility at 60 min [7] [µg/mL] | solubility at 60 min [8] [µg/mL] | solubility at 60 min [9] [µg/mL] | solubility at 60 min [10] [µg/mL] | solubility at 60 min [11] [µg/mL] | solubility at 60 min [12] [µg/mL] | Compound
> 500 | – | < 2000 | < 2000 | < 2000 | < 2000 | > 500 | – | – | – | – | – | CCCCCCCCCCCCCc1c(-c2cccs2)sc2c1sc1c3sc(-c4cccs4)c(CCCCCCCCCCCCC)c3sc21
< 2000 | > 500 | < 2000 | < 2000 | < 2000 | > 500 | > 500 | – | – | – | – | – | CCCCCCCCCCCCCc1c(-c2ccccc2)sc2c1sc1c3sc(-c4ccccc4)c(CCCCCCCCCCCCC)c3sc21
< 2000 | > 500 | < 2000 | > 500 | – | – | > 500 | – | – | – | – | – | CCCCCCCCCCCCCc1csc2c1sc1c2sc2c3scc(CCCCCCCCCCCCC)c3sc21
> 500 | – | < 2000 | < 2000 | < 2000 | < 2000 | > 500 | – | – | – | – | – | CCCCCCCCCCCCCc1c(-c2cccs2)sc2c1sc1c2sc2c3sc(-c4cccs4)c(CCCCCCCCCCCCC)c3sc21
> 500 | – | > 500 | – | – | – | > 500 | – | – | – | – | – | CCCCCCCCCCCCCc1c(-c2ccccc2)sc2c1sc1c2sc2c3sc(-c4ccccc4)c(CCCCCCCCCCCCC)c3sc21

The remaining lines, values behind:

Compound | solubility at 60 min [1] [µg/mL] | solubility at 60 min [2] [µg/mL] | solubility at 60 min [3] [µg/mL] | solubility at 60 min [4] [µg/mL] | solubility at 60 min [5] [µg/mL] | solubility at 60 min [6] [µg/mL] | solubility at 60 min [7] [µg/mL] | solubility at 60 min [8] [µg/mL] | solubility at 60 min [9] [µg/mL] | solubility at 60 min [10] [µg/mL] | solubility at 60 min [11] [µg/mL] | solubility at 60 min [12] [µg/mL]
CCCCCCCCCCCCCc1csc2c1sc1c3scc(CCCCCCCCCCCCC)c3sc21 | < 2000 | > 500 | < 2000 | < 2000 | < 2000 | < 2000 | < 2000 | > 500 | – | – | – | –
CCCCCCCCCCCCCCCCCc1csc2c1sc1c3scc(CCCCCCCCCCCCCCCCC)c3sc21 | < 2000 | < 2000 | < 2000 | < 2000 | < 2000 | < 2000 | < 2000 | < 2000 | < 2000 | < 2000 | < 2000 | < 2000
CCCCCCCCCCCCCCCCCc1c(-c2cccs2)sc2c1sc1c3sc(-c4cccs4)c(CCCCCCCCCCCCCCCCC)c3sc21 | < 2000 | < 2000 | < 2000 | < 2000 | < 2000 | < 2000 | < 2000 | < 2000 | < 2000 | > 500 | > 500 | > 500
CCCCCCCCCCCCCCCCCc1c(-c2ccccc2)sc2c1sc1c3sc(-c4ccccc4)c(CCCCCCCCCCCCCCCCC)c3sc21 | < 2000 | < 2000 | < 2000 | < 2000 | < 2000 | < 2000 | > 500 | > 500 | > 500 | – | – | –
